# Laboratory results reported in ChEMBL document CHEMBL1201862, “PubChem BioAssay data set” (2004).
# Values joined by “and” are separate entries in the source; they are usually repeats but may differ in a detail not shown here. Equal entries are not always repeated.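 Protocol summary: plate cells (96-well), add compound at 5 concentrations, incubate 48 h, interpolate endpoints linearly. GI50 is the concentration that inhibits growth by half.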 Active and inactive are the calls of the source. Rule as the data show it: active = GI50 up to about 1.1 µM and inactive = higher.
# Key:
# Test in all cases: DTP human tumour cell line panel, 48 h
# [1] = system: XF498
# [2] = system: OVCAR-5
# [3] = system: HL-60
# [4] = system: SR
# [5] = system: MCF7
# [6] = system: T47D
# [7] = system: Hs-578T
# [8] = system: M14
# [9] = system: K562
# [10] = system: MDA-MB-435
# [11] = system: DU-145
# [12] = system: HOP-62
# [13] = system: SW-620
# [14] = system: RXF 393
# [15] = system: DLD-1
# [16] = system: MDA-N
# [17] = system: SF-295
# [18] = system: NCI-H460
# [19] = system: RPMI-8226
# [20] = system: HCC 2998
# [21] = system: SF-268
# [22] = system: SK-MEL-2
# [23] = system: COLO 205
# [24] = system: HCT-15
# [25] = system: DMS-273
# [26] = system: MDA-MB-231
# [27] = system: HOP-92
# [28] = system: HOP-18
# [29] = system: NCI/ADR-RES
# [30] = system: CCRF-CEM
# [31] = system: HT-29
# [32] = system: U-251
# [33] = system: MOLT-4
# [34] = system: OVCAR-3
# [35] = system: KM-20L2
# [36] = system: LOX IMVI
# [37] = system: KM12
# [38] = system: SN12C
# [39] = system: HCT-116
# [40] = system: OVCAR-4
# [41] = system: SNB-78
# [42] = system: SK-MEL-28
# [43] = system: NCI-H522
# [44] = system: 786-0
# [45] = system: SNB-19
# [46] = system: NCI-H226
# [47] = system: ACHN
# [48] = system: SK-MEL-5
# [49] = system: SF-539
# [50] = system: SNB-75
# [51] = system: DMS-114
# [52] = system: A498
# [53] = system: UACC-62
# [54] = system: IGROV-1
# [55] = system: EKVX
# [56] = system: NCI-H23
# [57] = system: TK-10
# [58] = system: OVCAR-8
# [59] = system: M19-MEL
# [60] = system: UO-31
# [61] = system: SK-OV-3
# [62] = system: LXFL 529
# [63] = system: A549
# [64] = system: Malme-3M
# [65] = system: UACC-257
# [66] = system: CAKI-1
smiles,measurement,setting,value
CSc1nc(C)c(Br)c(=O)n1C1OC(COC(C)=O)C(OC(C)=O)C(OC(C)=O)C1OC(C)=O (stereo not drawn),GI50,[1],21.2 µM (inactive)
same,GI50,[2],> 100 µM (inactive) and 94.2 µM (inactive)
same,GI50,[3],> 100 µM (inactive)
same,GI50,[4],> 100 µM (inactive)
same,GI50,[5],> 100 µM (inactive)
same,GI50,[6],> 100 µM (inactive)
same,GI50,[7],42.9 µM (inactive)
same,GI50,[8],> 100 µM (inactive)
same,GI50,[9],> 100 µM (inactive)
same,GI50,[10],> 100 µM (inactive)
same,GI50,[11],> 100 µM (inactive)
same,GI50,[12],26.8 µM (inactive) and 22 µM (inactive)
same,GI50,[13],> 100 µM (inactive)
same,GI50,[14],20.5 µM (inactive) and 19.9 µM (inactive)
same,GI50,[15],> 100 µM (inactive)
same,GI50,[16],> 100 µM (inactive)
same,GI50,[17],24.2 µM (inactive) and 26.9 µM (inactive)
same,GI50,[18],> 100 µM (inactive) and 97.1 µM (inactive)
same,GI50,[19],> 100 µM (inactive)
same,GI50,[20],> 100 µM (inactive)
same,GI50,[21],34.1 µM (inactive) and 19.6 µM (inactive)
same,GI50,[22],56.5 µM (inactive)
same,GI50,[23],> 100 µM (inactive)
same,GI50,[24],> 100 µM
same,GI50,[25],27.7 µM (inactive)
same,GI50,[26],63.8 µM (inactive)
same,GI50,[27],20.1 µM (inactive) and 13.6 µM (inactive)
same,GI50,[28],60.4 µM (inactive)
same,GI50,[29],> 100 µM (inactive)
same,GI50,[30],> 100 µM (inactive)
same,GI50,[31],> 100 µM (inactive)
same,GI50,[32],39.1 µM (inactive) and 22.4 µM (inactive)
same,GI50,[33],> 100 µM (inactive)
same,GI50,[34],> 100 µM (inactive)
same,GI50,[35],> 100 µM (inactive)
same,GI50,[36],> 100 µM (inactive)
same,GI50,[37],> 100 µM (inactive)
same,GI50,[38],> 100 µM (inactive)
C=C(CO)CC(/C=C(\C)CC/C=C(\C)CCl)OC(C)=O (stereo not drawn),GI50,[1],> 100 µM (inactive)
same,GI50,[2],> 100 µM (inactive)
same,GI50,[3],> 100 µM (inactive)
same,GI50,[39],> 100 µM (inactive)
same,GI50,[40],> 100 µM (inactive)
same,GI50,[8],> 100 µM (inactive)
same,GI50,[9],> 100 µM (inactive)
same,GI50,[41],> 100 µM (inactive)
same,GI50,[12],> 100 µM (inactive)
same,GI50,[42],> 100 µM (inactive)
same,GI50,[13],> 100 µM (inactive)
same,GI50,[43],> 100 µM (inactive)
same,GI50,[44],> 100 µM (inactive)
same,GI50,[14],> 100 µM (inactive)
same,GI50,[45],> 100 µM (inactive)
same,GI50,[15],> 100 µM (inactive)
same,GI50,[46],> 100 µM (inactive)
same,GI50,[47],> 100 µM (inactive)
same,GI50,[48],> 100 µM (inactive)
same,GI50,[49],> 100 µM (inactive)
same,GI50,[17],> 100 µM (inactive)
same,GI50,[50],> 100 µM (inactive)
same,GI50,[51],> 100 µM (inactive)
same,GI50,[18],> 100 µM (inactive)
same,GI50,[52],> 100 µM (inactive)
same,GI50,[19],> 100 µM (inactive)
same,GI50,[53],> 100 µM (inactive)
same,GI50,[54],> 100 µM (inactive)
same,GI50,[55],> 100 µM (inactive)
same,GI50,[20],> 100 µM (inactive)
same,GI50,[56],> 100 µM (inactive)
same,GI50,[21],> 100 µM (inactive)
same,GI50,[22],> 100 µM (inactive)
same,GI50,[23],> 100 µM (inactive)
same,GI50,[24],> 100 µM
same,GI50,[57],> 100 µM (inactive)
same,GI50,[25],> 100 µM (inactive)
same,GI50,[58],> 100 µM (inactive)
same,GI50,[59],> 100 µM (inactive)
same,GI50,[27],5.7 µM (inactive)
same,GI50,[60],> 100 µM (inactive)
same,GI50,[30],> 100 µM (inactive)
same,GI50,[61],> 100 µM (inactive)
same,GI50,[31],> 100 µM (inactive)
same,GI50,[62],> 100 µM (inactive)
same,GI50,[32],> 100 µM (inactive)
same,GI50,[33],> 100 µM (inactive)
same,GI50,[63],> 100 µM (inactive)
same,GI50,[34],> 100 µM (inactive)
same,GI50,[35],> 100 µM (inactive)
same,GI50,[36],> 100 µM (inactive)
same,GI50,[37],> 100 µM (inactive)
same,GI50,[38],> 100 µM (inactive)
C[C@@]12CC[C@H]3[C@@H]4CCC(=O)N[C@@]4(C)CC[C@@H]3[C@@]1(C)CC[C@H](OC(=O)Cc1ccc(N(CCCl)CCCl)cc1)C2,GI50,[64],19.5 µM (inactive)
same,GI50,[2],17.3 µM (inactive)
same,GI50,[65],24.8 µM (inactive)
same,GI50,[39],16.4 µM (inactive)
same,GI50,[5],11.7 µM (inactive)
same,GI50,[40],18.2 µM (inactive)
same,GI50,[9],19.5 µM (inactive)
same,GI50,[41],19.5 µM (inactive)
same,GI50,[12],16.8 µM (inactive)
same,GI50,[42],18.4 µM (inactive)
same,GI50,[13],18.2 µM (inactive)
same,GI50,[43],17.7 µM (inactive)
same,GI50,[14],16.5 µM (inactive)
same,GI50,[45],> 10 µM (inactive)
same,GI50,[15],19.7 µM (inactive)
same,GI50,[46],17.2 µM (inactive)
same,GI50,[48],13.7 µM (inactive)
same,GI50,[49],17.3 µM (inactive)
same,GI50,[17],17.5 µM (inactive)
same,GI50,[50],18.3 µM (inactive)
same,GI50,[51],15 µM (inactive)
same,GI50,[18],13.7 µM (inactive)
same,GI50,[52],18.7 µM (inactive)
same,GI50,[19],18.4 µM (inactive)
same,GI50,[53],15.5 µM (inactive)
same,GI50,[54],16.2 µM (inactive)
same,GI50,[55],16.4 µM (inactive)
same,GI50,[20],16.3 µM (inactive)
same,GI50,[56],15.1 µM (inactive)
same,GI50,[21],15.8 µM (inactive)
same,GI50,[22],51.1 µM (inactive)
same,GI50,[23],20.4 µM (inactive)
same,GI50,[24],17.6 µM
same,GI50,[25],15.2 µM (inactive)
same,GI50,[58],16.7 µM (inactive)
same,GI50,[59],17.5 µM (inactive)
same,GI50,[27],19 µM (inactive)
same,GI50,[66],16.5 µM (inactive)
same,GI50,[60],17.8 µM (inactive)
same,GI50,[28],18 µM (inactive)
same,GI50,[29],18.3 µM (inactive)
same,GI50,[30],11.5 µM (inactive)
same,GI50,[61],14.1 µM (inactive)
same,GI50,[31],14.7 µM (inactive)
same,GI50,[32],15 µM (inactive)
same,GI50,[33],10.1 µM (inactive)
same,GI50,[63],15.7 µM (inactive)
same,GI50,[34],17.9 µM (inactive)
same,GI50,[35],18.2 µM (inactive)
same,GI50,[36],13.8 µM (inactive)
same,GI50,[37],22.7 µM (inactive)
same,GI50,[38],14.2 µM (inactive)
